Data: US20030083315A1, “Human chymase inhibitors” (priority 2000, published 2003)

Key:
[1] = target: T1, recombinant human mast cell chymase (Homo sapiens, UniProt P23946); assay: Inhibition of enzyme activity of recombinant human mast cell chymase; format: biochemical; details: active-type human mast cell chymase, substrate succinyl-alanyl-histidyl-prolyl-phenylalanylparanitroanilide 0.5 mM, room temperature 5 min, absorption at 405
T1 construct: made in house; host or cells: insect cell (Tn 5) infected with recombinant baculovirus
T1 sequence (P23946 22-247): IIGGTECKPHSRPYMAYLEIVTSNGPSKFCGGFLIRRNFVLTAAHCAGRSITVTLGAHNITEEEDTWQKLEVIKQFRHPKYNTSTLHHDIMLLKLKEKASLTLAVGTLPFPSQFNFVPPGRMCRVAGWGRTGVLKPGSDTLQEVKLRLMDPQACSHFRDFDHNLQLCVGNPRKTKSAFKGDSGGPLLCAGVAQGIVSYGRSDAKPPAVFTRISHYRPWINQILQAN
Method: A recombinant pro-type human mast cell chymase was prepared according to the report by Urata et al., Journal of Biological Chemistry 17173, Vol. 266 (1991). That is, the product was purified from the supernatant of the culture broth of insect cell (Tn 5) infected with a recombinant baculovirus containing a cDNA encoding a human mast cell chymase by heparin sepharose (manufactured by Pharmacia Co.). The obtained chymase was further activated according to the report of Murakami et al., Journal of Biological Chemistry, 2218, Vol. 270 (1995), and then it was purified by heparin sepharose to yield an active-type human mast cell chymase.
To 50 μl of buffer A (0.5 to 3.0 M NaCl, 50 mM tris-HCl, pH 8.0) containing 1 to 5 ng of the active-type human mast cell chymase obtained by Example 19 was added 2 μl of a DMSO solution containing a compound of the present invention, and the mixture was made to react at room temperature for 5 min after the addition of 50 μl of the buffer A containing 0.5 mM of succinyl-alanyl-histidyl-prolyl-phenylalanylparanitroanilide (Bacchem Co.) as a substrate. The inhibition activity was determined by measuring the variation of the absorption at 405 nm with the passage of time.

[2] = Blood concentration after forced oral administration into rat stomach; format: in vivo; details: SD male rat, 30 mg/kg forced into the stomach under starvation, serum, unchanged compound by HPLC; for AUC: read-out: AUC (extrapolation)
Method: By using a SD male rat, a compound having the compound number of 121, 127 or 363 was forcedly administered at a dose of 30 mg/kg into the stomach under starvation, and blood samples were taken out at 30 min, 1 hr, 2 hr, 4 hr and 8 hr after the administration. Directly after the collection of the blood samples, the serum component was separated, the compound of the present invention was extracted by a general method of solid extraction, and the obtained sample was subjected to HPLC analysis by using an ODS column to measured the amount of the unchanged compound.

[3] = In vitro metabolic test using hepatic microsome (Ms); format: in vitro ADME; details: hepatic microsome 1.0 mg/mL, substrate 5.0 μM, 37° C.; for MR (maximum speed of metabolism): NADPH 1.0 mM
Method: Letting the amount of the unchanged body at the initial concentration (reaction time 0 min) 100%, the speed of metabolism is determined from the amount of the decrease of the unchanged body at each reaction time, and the maximum speed of metabolism (MR) is evaluated.
MR=(the substrate concentration at reaction time 0 min−the substance concentration after the reaction)÷reaction time÷protein concentration (nmol/min/mg-protein)

Structure (SMILES)	IC50 [1] [nM]	Cmax [2] [µg/mL]	AUC [2] [µg·h/mL]	Remaining Rate (%) of Substrate at 30 min [3] [%]	MR (maximum speed of metabolism) [3] [nmol/min/mg-protein]
O=C(O)CCCSc1nc2ccccc2n1Cc1cccc2ccccc12 [Compound No. 121, 4-(1-((1-naphthyl)methyl)benzimidazole-2-ylthio)butyric acid]	1 to 10	122	226	56.6	0.235
COc1ccc2c(c1)nc(SCCCC(=O)O)n2Cc1cccc2ccccc12 [Compound No. 127, 4-((1-((1-naphthyl)methyl)-5-methoxybenzimidazole)-2-ylthio)butyric acid]	1 to 10	76	181	21.6	0.190
CCOc1ccc2c(c1)nc(SCCCC(=O)O)n2Cc1cccc2ccccc12 [Compound No. 128, 4-(1-((1-naphthyl)methyl)-5-ethoxybenzimidazole-2-ylthio)butyric acid]	10 to 100	–	–	–	–
O=C(O)CCCSc1nc2cc(F)c(F)cc2n1Cc1cccc2ccccc12 [Compound No. 131, 4-(1-((1-naphthyl)methyl)-5,6-difluorobenzimidazole-2-ylthio)butyric acid]	10 to 100	–	–	–	–
Cc1ccc(C)c(Cn2c(SCCCC(=O)O)nc3cc(C#N)ccc32)c1 [Compound No. 337, 4-(1-((2,5-dimethylphenyl)methyl)-5-cyanobenzimidazole-2-ylthio)butyric Acid]	10 to 100	–	–	–	–
N#Cc1ccc2c(c1)nc(SCCCC(=O)O)n2Cc1cccc2ccccc12 [Compound No. 363, 4-(1-((1-naphthyl)methyl)-5-cyanobenzimidazole-2-ylthio)butyric acid]	10 to 100	77	182	57.6	0.147
Cc1cccc2cccc(Cn3c(SCCCC(=O)O)nc4ccccc43)c12 [Compound No. 492, 4-(1-((8-methyl-1-naphthyl)methyl)benzimidazole-2-ylthio)butyric Acid]	1 to 10	–	–	–	–
CC(C)(CC(=O)O)C(=O)CSc1nc2ccccc2n1Cc1cccc2ccccc12 [Compound No. 494, 5-(1-((1-nanhthyl)methyl)benzimidazole-2-ylthio)-4-oxo-3,3-dimethylvaleric Acid]	10 to 100	–	–	–	–
COc1ccc2c(c1)nc(SCCCC(=O)O)n2Cc1cc(C)ccc1C [Compound No. 495, 4-(1-((2,5-dimethylphenil)methyl)-5-methoxybenzimidazole-2-ylthio)butyric Acid]	10 to 100	–	–	–	–
Cc1cc2nc(S(=O)(=O)CCCC(=O)O)n(Cc3cccc4ccccc34)c2cc1C [Compound No. 498, 4-(1-((1-naphthyl)methyl)-5,6-dimethylbenzimidazole-2-ylsulfonyl)butyric acid]	10 to 100	–	–	–	–

The next lines start with the values.

IC50 [1] [nM]	Cmax [2] [µg/mL]	AUC [2] [µg·h/mL]	Remaining Rate (%) of Substrate at 30 min [3] [%]	MR (maximum speed of metabolism) [3] [nmol/min/mg-protein]	Structure (SMILES)
10 to 100	–	–	–	–	O=C(O)CCCSc1nc2cc(C(F)(F)F)ccc2n1Cc1cccc2ccccc12 [Compound No. 126, 4-(1-((1-naphthyl)methyl)-5-trifluoromethylbenzimidazole-2-ylthio)butyric Acid]
1 to 10	–	–	–	–	Cc1cc2nc(SCCCC(=O)O)n(Cc3cccc4ccccc34)c2cc1C [Compound No. 129, 4-(1-((1-naphthyl)methyl)-5,6-dimethylbenzimidazole-2-ylthio)butyric acid]
1 to 10	–	–	–	–	Cc1cc2nc(SCCCC(=O)O)n(Cc3cccc4cccc(C)c34)c2cc1C [Compound No. 493, 4-(1-((8-methyl-1-naphthyl)methyl)-5,6-dimethylbenzimidazole-2-ylthio)-butyric Acid]
10 to 100	–	–	–	–	O=C(O)CCSc1nc2ccccc2n1Cc1cccc2ccccc12 [Compound No. 496, 3-(1-((1-naphthyl)methyl)-benzimidazole-2-ylthio)propanoic acid]
10 to 100	–	–	–	–	O=C(O)CCCCSc1nc2ccccc2n1Cc1cccc2ccccc12 [compound 497, 5-(1-((1-naphthyl)methyl)-benzimidazole-2-ylthio)valeric acid]
